# Measured values taken from US20240277829A1, “HIV-1 VACCINATION AND SAMT-247 MICROBICIDE TO PREVENT HIV-1 INFECTION” (priority 2021, published 2024).
# What was measured:
# Type in all cases: cell-based
# [1] = system: NKG2A^+ cells; experiment: Zinc chelation: macaque blood NK cells, SAMT-247 and/or gp120 peptides with or without TPEN; conditions: presence or absence of gp120 peptide
# Procedure: (§1) Zinc chelation: The frequencies and cytokine levels of NK cells, monocytes and T cells were measured in macaque blood. Cryopreserved PBMCs were thawed and cultured in R10 in the presence/or absence of SAMT-247 and/or gp120 peptides for 12 hours. Cells were incubated with or without Zinc chelator TPEN (cat. #P4413-100 MG, 5 μM) for 12 h. Subsequently, cells were stained for live cells with Live/Dead Blue dye (cat. #L34962, 0.5 μl) from Thermofisher; followed by surface staining with the following: Alexa 700 anti-CD3 (SP34-2; cat. #557917, 5 μl), BV711 anti-CD4 (L200; cat. #563913, 5 μl), BB700 anti-CD8 (RPA-T8; cat. #566452, 5 μl), BUV737 anti-CD20 (2H7; cat. #612848, 5 μl), PE anti-CD45 (D058-1283; cat. #552833, 5 μl), BV786 anti-CCR5 (3A9; cat. #565001, 5 μl), BV496 anti-CD16 (3G8; cat. #612944, 5 μl), BUV661 anti-HLA-DR (G46-6; cat. #612980, 5 μl), BUV805 anti-CD14 (M5E2; cat. #565779, 5 μl) from BD Biosciences; APC-H7 anti-CD11b (ICRF44; cat. #47-0118-42, 5 μl), PE-Cy5 anti-CD95 (ICRF44; cat. #15-0959-42, 5 μl) from eBioscience; APC anti-α4β7, provided by the NIH Nonhuman Primate Reagent Resource (R24 OD010976, and NIAID contract HHSN272201300031C); BV605 anti-CCR6 (G034E3; cat. #353420, 5 μl), BV650 anti-CXCR3 (G025H7; cat. #353730, 5 μl), from Biolegend and PE-Cy7 anti-NKG2A (Z199; cat. #B10246, 5 μl) from Beckman coulter for 30 minutes at room temperature. This was followed by permeabilization with a FOX3-transcription buffer set (cat. #00-5523-00) from eBioscience according to the manufacture's recommendation and subsequently intracellular staining with the following: BV750 anti-TNF-α (MAB11; cat. #566359, 5 μl), BUV395 anti-IFN-γ (B27; cat. #563563, 5 μl), BV510 anti-GranB (GB11; cat. #563388, 5 μl), BV421 anti-IL-10 (JES3-9D7; cat. #564053, 5 μl), PE-CF594 anti-Ki67 (B56; cat. #567120, 5 μl) from BD Biosciences and FITC anti-Perforin (pf-344; cat. #3465-7, 5 μl) from MABTECH for 30 minutes at room temperature. Flow cytometry acquisitions were performed on a FACSYMPHONY™ A5 and examined using FACSDIVA™ software (BD Biosciences).
# [2] = system: CD14^+ monocytes; experiment: Zinc chelation: macaque blood monocytes, SAMT-247 and/or gp120 peptides with or without TPEN
# Procedure: as §1
# [3] = system: NKG2A^+ NK cells; experiment: Intracellular cytokines of human blood NK cells using SAMT-247 and PMA stimulation with or without zinc chelator; conditions: human PBMCs
# Procedure: Intracellular cytokines of Human blood NK cells using SAMT-247 and PMA stimulation with or without zinc chelator. The levels of NKG2A^+ NK cells were measured in blood of healthy humans. Human PBMCs were thawed and cultured in R10 in the presence or absence of SAMT-247 and/or PMA for 12 hours. Cells were incubated with or without Zinc chelator TPEN (cat. #P4413-100 MG, 5 μM) for 12 h. Subsequently, PBMCs were surface stained with the following: BUV737 anti-CD3 (SP34-2; cat. #741872, 5 μl), Alexa700 anti-CD20 (2H7; cat. #560631, 5 μl), BV786 anti-CD45 (HI30; cat. #563716, 5 μl) from BD Biosciences; APC-H7 anti-CD11b (ICRF44; cat. #47-0118-42, 5 μl) from eBioscience and PE-Cy7 anti-NKG2A (Z199; cat. #B10246, 5 μl) from Beckman coulter for 30 minutes at room temperature. This was followed by permeabilization with FOX3-transcription buffer set (cat. #00-5523-00) from eBioscience according to the manufacture's recommendation and subsequently intracellular staining with the following: BV750 anti-TNF-α (MAB11; cat. #566359, 5 μl), BUV396 anti-IFN-γ (B27; cat. #563563, 5 μl), BV510 anti-GranB (GB11; cat. #563388, 5 μl) from BD Biosciences; and FITC anti-Perforin (pf-344; cat. #3465-7, 5 μl) from MABTECH for 30 minutes at room temperature. Flow cytometry acquisitions were performed on a FACSymphony A5 and examined using FACSDIVA™ software (BD Biosciences).
structure (smiles),measurement,setting,value
CC(=O)Sc1ccccc1C(=O)NCCC(N)=O [SAMT-247],frequency of NKG2A^+ cells,[1],increased
same,Cytokine,"[2]; Monocytes unstimulated or +gp120 peptides, * Zinc dependence",>IL-10 *
same,IL-10 expression in CD14^+ monocytes,[2]; SAMT-247 alone or together with gp120 peptides,increased
same,"expression of granzyme, perforin, or cytokines",[3]; absence of PMA stimulation,did not affect
same,percentage of IFN-γ and TNF-α producing NKG2A^+ cells,[3]; presence of PMA,decreased
same,percentage of NKG2A^+ NK cells expressing granzyme B and perforin,[3]; presence of PMA,increased
